Measured values reported in patent US20240247080A1, “GLP1/GIP/NPY2 RECEPTOR TRIPLE AGONISTS” (Boehringer Ingelheim International GmbH, priority 2022, published 2024).
pEC50: −log10 of the molar value. Like-named read-outs stand apart in the source and are kept apart here. Starred links: 1 amine or outer side, 2 acyl side, 3 side chain; linkers in the order of their positions; H or OH if unused. Non-standard residues stand in square brackets, D forms with d. Groups on a side chain read outwards from the residue. *: point of attachment. C20 diacid = O=C(O)CCCCCCCCCCCCCCCCCCC(=O)*; C18 diacid = O=C(O)CCCCCCCCCCCCCCCCC(=O)*; γGlu = O=C(O)[C@H](CCC(=O)[*:2])N[*:1]; εLys = N[C@@H](CCCCN[*:1])C(=O)[*:2]; AEEA = NCCOCCOCC(=O)O; Aib = CC(C)(N)C(=O)O; Ahx = NCCCCCC(=O)O

Experiments:
[1] = molecular target: T1, hGLP1R (Homo sapiens, UniProt P43220); experiment: hGLP1R CreLuc reporter gene assay in 0.5% and 100% plasma; format: cell-based; settings: CreLuc reporter gene assay
T1 construct: expressed in transfected cells; host or cells: HEK-293 cells carrying a CRE-luciferase reporter gene
T1 sequence (P43220 24-463): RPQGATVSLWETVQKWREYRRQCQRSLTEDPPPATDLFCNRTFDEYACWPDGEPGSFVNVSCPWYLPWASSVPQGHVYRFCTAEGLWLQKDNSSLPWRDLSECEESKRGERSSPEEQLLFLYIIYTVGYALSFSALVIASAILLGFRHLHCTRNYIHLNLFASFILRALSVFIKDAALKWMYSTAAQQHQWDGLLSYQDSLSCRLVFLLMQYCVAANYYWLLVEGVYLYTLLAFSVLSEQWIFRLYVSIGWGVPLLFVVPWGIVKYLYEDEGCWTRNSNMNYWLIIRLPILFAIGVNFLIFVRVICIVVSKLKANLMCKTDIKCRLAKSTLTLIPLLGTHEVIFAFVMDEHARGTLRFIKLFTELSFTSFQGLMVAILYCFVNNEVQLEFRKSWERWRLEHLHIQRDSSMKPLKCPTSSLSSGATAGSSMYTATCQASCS
Excerpt: (§1) Example 1: hGLPR/hGIPR/hNPY2R CreLuc Assay in 0.5% and 100% Plasma
(§2) CHO and HEK-293 recombinant cell lines express a luciferase reporter gene under control of the cAMP responsive element (CRE). As a second recombinant protein the GLP-1 and NPY2 receptors were expressed in the reporter gene HEK cells, and the GIP receptor was expressed in the reporter gene CHO cells, respectively. Stimulation of these recombinant cells with an agonist leads to an increase of intracellular cAMP levels. In the presence of cAMP, the transcription factor CRE binding protein (CREB) binds to the CRE and to the CREB binding protein (CBP), which leads to transcription of the luciferase reporter gene. Peptides upon serial-dilution in 100% DMSO were transferred into 384-well assay plates with 5 μl pre-dispensed assay buffer (1×HBSS, 20 mM HEPES, pH7.4 supplemented with 0.5% human plasma) using acoustic dispensing on a Labcyte ECHO. Cryo-preserved transgenic reporter gene cells were thawed in assay buffer. 20 μl (10.000 cells/well) were added to the plate with the peptides and incubated for 4 hours at 37° C. in a humidified incubator. Following incubation, assay plates are equilibrated to room temperature, followed by addition of 25 μl of Bright-GIo™ Luciferase reagent, incubation at room temperature for 10 minutes and analysis of luminescence (Envision Reader). Concentration response evaluation of compounds was performed with 8 concentrations of peptides (covering four decades). EC50 values were calculated by non-linear regression using sigmoid concentration-response with variable slope. The same assays were run in the presence of 100% plasma with no additional buffer constituents.

[2] = molecular target: T2, hGIPR (Homo sapiens, UniProt P48546); experiment: hGIPR CreLuc reporter gene assay in 0.5% and 100% plasma; format: cell-based; settings: CreLuc reporter gene assay
T2 construct: expressed in transfected cells; host or cells: CHO cells carrying a CRE-luciferase reporter gene
T2 sequence (P48546 22-466): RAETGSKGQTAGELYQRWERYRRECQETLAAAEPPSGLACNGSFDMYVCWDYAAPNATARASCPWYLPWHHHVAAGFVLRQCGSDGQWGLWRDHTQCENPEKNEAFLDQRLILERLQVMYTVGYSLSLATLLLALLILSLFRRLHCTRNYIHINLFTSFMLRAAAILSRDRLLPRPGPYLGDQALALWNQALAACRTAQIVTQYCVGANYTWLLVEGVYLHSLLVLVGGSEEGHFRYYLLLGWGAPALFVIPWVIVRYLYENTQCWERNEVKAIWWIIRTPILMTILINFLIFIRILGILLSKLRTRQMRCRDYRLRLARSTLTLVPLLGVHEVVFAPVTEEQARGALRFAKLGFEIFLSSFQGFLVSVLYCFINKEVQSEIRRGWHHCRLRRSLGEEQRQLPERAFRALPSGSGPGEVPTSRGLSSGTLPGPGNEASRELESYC
Excerpt: as §1, §2

[3] = 0.5% human plasma, read-out: hGLP1R 0.5% hP
[4] = 0.5% human plasma, read-out: hGIPR 0.5% hP
[5] = 100% human plasma, read-out: hGIPR 100% hP

Substance	pEC50 [1, 3]	pEC50 [2, 4]	pEC50 [2, 5]	pEC50 ([1]; 100% human plasma, read-out: hGLP1R 100% hP)
H-Y[Aib]EGTFTSDYSI[Aib]LEKEKQ[Aib]AFVEWLIK([εLys-γGlu-γGlu-γGlu-γGlu-γGlu-γGlu-C20 diacid])GGPSSGASLRHYYNWLTRQRY-NH2 [Compound 69, Y-Aib-E-G-T-F-T-S-D-Y-S-I-Aib-L-E-K-E-K-Q-Aib-A-F-V-E-W-L-I-K(1,3)-GGPSSGASLRHYYNWLTRQRY-NH2.C20DA-gGlu-gGlu-gGlu-gGlu-gGlu-gGlu-eLys(1,2)]	8.83	9.10	–	–
H-Y[Aib]EGTFTSDYSI[Aib]LEKQAE[Aib]AFVEWLIK([γGlu-γGlu-γGlu-γGlu-C20 diacid])GGPSEGASLRHYYNWLTRQRY-NH2 [Compound 280, Y-Aib-E-G-T-F-T-S-D-Y-S-I-Aib-L-E-K-Q-A-E-Aib-A-F-V-E-W-L-I-K(1,3)-GGPSEGASLRHYYNWLTRQRY-NH2.C20DA-gGlu-gGlu-gGlu-gGlu(1,2)]	9.36	9.42	–	–
H-Y[Aib]EGTFTSDYSI[Aib]LEKQAQ[Aib]AFVEWLIK([AEEA-AEEA-γGlu-γGlu-γGlu-γGlu-γGlu-C18 diacid])GGPSSGASLRHYYNWLTRQRY-NH2 [Compound 261, Y-Aib-E-G-T-F-T-S-D-Y-S-I-Aib-L-E-K-Q-A-Q-Aib-A-F-V-E-W-L-I-K(1,3)-GGPSSGASLRHYYNWLTRQRY-NH2.C18DA-gGlu-gGlu-gGlu-gGlu-gGlu-OEG-OEG(1,2)]	9.82	9.74	8.94	–
H-Y[Aib]EGTFTSDYSI[Aib]LEKQAQ[Aib]AFVEWLIK([AEEA-γGlu-γGlu-γGlu-C18 diacid])GGPSEGASLRHYYNWLTRQRY-NH2 [Compound 300, Y-Aib-E-G-T-F-T-S-D-Y-S-I-Aib-L-E-K-Q-A-Q-Aib-A-F-V-E-W-L-I-K(1,3)-GGPSEGASLRHYYNWLTRQRY-NH2.C18DA-gGlu-gGlu-gGlu-OEG(1,2)]	9.96	9.80	8.74	–
H-Y[Aib]EGTFTSDYSI[Aib]LEKQAQ[Aib]AFVEWLIK([Ahx-γGlu-γGlu-γGlu-γGlu-γGlu-C18 diacid])GGPSEGASLRHYYNWLTRQRY-NH2 [Compound 304, Y-Aib-E-G-T-F-T-S-D-Y-S-I-Aib-L-E-K-Q-A-Q-Aib-A-F-V-E-W-L-I-K(1,3)-GGPSEGASLRHYYNWLTRQRY-NH2.C18DA-gGlu-gGlu-gGlu-gGlu-gGlu-AHX(1,2)]	9.46	9.64	8.63	–
H-Y[Aib]EGTFTSDYSI[Aib]LEKQAQ[Aib]AFVEWLIK([γGlu-γGlu-γGlu-γGlu-γGlu-γGlu-C20 diacid])GGPSSGASLRHYYNWLTRQRY-NH2 [Compound 235, Y-Aib-E-G-T-F-T-S-D-Y-S-I-Aib-L-E-K-Q-A-Q-Aib-A-F-V-E-W-L-I-K(1,3)-GGPSSGASLRHYYNWLTRQRY-NH2.C20DA-gGlu-gGlu-gGlu-gGlu-gGlu-gGlu(1,2)]	9.92	9.47	8.55	–
H-Y[Aib]EGTFTSDYSI[Aib]LEKQAQ[Aib]AFVEWLIK([εLys-γGlu-γGlu-γGlu-γGlu-γGlu-γGlu-C20 diacid])GGPRSGASLRHYYNWLTRQRY-NH2 [Compound 168, Y-Aib-E-G-T-F-T-S-D-Y-S-I-Aib-L-E-K-Q-A-Q-Aib-A-F-V-E-W-L-I-K(1,3)-GGPRSGASLRHYYNWLTRQRY-NH2.C20DA-gGlu-gGlu-gGlu-gGlu-gGlu-gGlu-eLys(1,2)]	9.96	9.70	8.82	–
H-Y[Aib]EGTFTSDYSI[Aib]LEKQAQ[Aib]AFVEWLIK([εLys-γGlu-γGlu-γGlu-γGlu-γGlu-γGlu-C20 diacid])GGPSSAVSLRHYYNWLTRQRY-NH2 [Compound 33, Y-Aib-E-G-T-F-T-S-D-Y-S-I-Aib-L-E-K-Q-A-Q-Aib-A-F-V-E-W-L-I-K(1,3)-GGPSSAVSLRHYYNWLTRQRY-NH2.C20DA-gGlu-gGlu-gGlu-gGlu-gGlu-gGlu-eLys(1,2)]	9.85	9.60	–	8.50
